In brackets after ≈: the same amount, converted by molar mass.

The subject of the first experiment is Mycobacterium tuberculosis. As to the kind of experiment: Antimycobacterial activity against multidrug-resistant Mycobacterium tuberculosis. The class given is functional.
As to `C=C(C)C(CC[C@@H](C)[C@H]1CC[C@@]2(C)[C@@H]3CC[C@H]4C(C)(C)[C@@H](O)CC[C@@]45C[C@@]35CC[C@]12C)OO` (stereo not given in full), it took 25 µg/mL (≈ 54.5 µM) to inhibit growth (MIC).

Compound `COc1ccc(C(=O)OC2=C(C(C)C)C(=O)C3=C(C2=O)[C@@]2(C)CCCC(C)(C)[C@@H]2[C@H](O)[C@H]3OC(C)=O)cc1` displayed an MIC of 0.39 µg/mL (≈ 0.743 µM).

Compound `CC(C)C1=C(O)C(=O)C2=C(C=C[C@H]3C(C)(C)CCC[C@]23C)C1=O` yielded an MIC of 12.5 µg/mL (≈ 39.8 µM).

`CC(=O)O[C@H]1C2=C(C(=O)C(O)=C(C(C)C)C2=O)[C@@]2(C)CCCC(C)(C)[C@@H]2[C@@H]1O` displayed an MIC of 3.12 µg/mL (≈ 7.99 µM).

In turn, `CC(=O)O[C@H]1C2=C(C(=O)C(OC(=O)c3ccc(Cl)cc3)=C(C(C)C)C2=O)[C@@]2(C)CCCC(C)(C)[C@@H]2[C@@H]1O` registered a minimal inhibitory concentration (MIC) of 0.78 µg/mL (≈ 1.47 µM).

Compound `C[C@H](C/C=C/C(C)(C)OO)[C@H]1CC[C@@]2(C)[C@@H]3CC[C@H]4C(C)(C)[C@@H](O)CC[C@@]45C[C@@]35CC[C@]12C` displayed an MIC of 12.5 µg/mL (≈ 27.2 µM).

For the compound `CC(C)C1=C(O)C(=O)C2=C(C1=O)[C@H](O)C[C@H]1C(C)(C)CCC[C@]21C` [HORMINONE], the MIC came to 12.5 µg/mL (≈ 37.6 µM).

As to `CC(C)C1=C(O)C(=O)C2=C(C1=O)[C@H](O)[C@@H](O)[C@H]1C(C)(C)CCC[C@]21C`, inhibition of growth (MIC) required 12.5 µg/mL (≈ 35.9 µM).

In the next experiment the test system is Mycobacterium tuberculosis. The experiment in a line: Antimycobacterial activity against rifampicin-resistant Mycobacterium tuberculosis. The class given is functional.
`C/C=C(/NC(=O)c1csc(-c2csc(-c3ccc4c(n3)-c3csc(n3)C(C(C)(O)C(C)O)NC(=O)c3csc(n3)C(C(C)C)NC(=O)c3csc(n3)/C(=C/OC)NC(=O)C(C(C)O)NC(=O)c3csc-4n3)n2)n1)C(=O)OC` (stereo not given) [NOCARDITHIOCIN]: the MIC was found to be 0.025 µg/mL (≈ 0.0215 µM).

Tested on in the next experiment: not listed separately
As to the kind of experiment: Selectivity index, ratio of IC50 for african green monkey Vero cells to MIC for multidrug-resistant Mycobacterium tuberculosis. In kind it is functional.
In the case of `COc1ccc(C(=O)OC2=C(C(C)C)C(=O)C3=C(C2=O)[C@@]2(C)CCCC(C)(C)[C@@H]2[C@H](O)[C@H]3OC(C)=O)cc1`, the “Selectivity Index” value is given as 6.6.

(Values after ChEMBL document CHEMBL2203104, “Recent advances in antitubercular natural products” (Eur J Med Chem, 2012).)
